The results in this text go back to patent US20260207578A1, “COMPOUND BASED ON SULFUR/OXYGEN SUBSTITUTED GLUTARIMIDE-BASED ISOINDOLINONE SKELETON AND USE THEREOF” (Gluetacs Therapeutics (Shanghai) Co., LTD., priority 2022, published 2026).

In experiment [1] the target is T1, Wee1 (Homo sapiens, UniProt P30291+Q96SW2).
T1 construct: endogenous in cells; host or cells: human PBMCs (Milecell Biotechnologies)
The experiment in a line: Western-blot assay, substrate protein in hPBMCs. The class given is cell-based. The settings on record: hPBMC cells, 24 hours, tested at 50 nM and 500 nM, table does not say which. An outline of the steps:
(§1)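 Thawed hPBMCs, 1×10^6 cells/mL; 24 h compound; RIPA + phosphatase inhibitor lysis, BCA-normalised loading, SDS-PAGE, NC transfer, immunodetection. Bands vs internal control → % remaining; DC50 = concentration at 50% of DMSO band intensity.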

Experiment [2] addresses T2, CK1α (Homo sapiens, UniProt P48729+Q96SW2).
T2 construct: endogenous in cells; host or cells: human PBMCs (Milecell Biotechnologies)
The experiment is described as follows: Western-blot assay, substrate protein in hPBMCs. In kind it is cell-based. The settings on record: hPBMC cells, 24 hours, tested at 50 nM and 500 nM, table does not say which. A digest of the protocol: as §1

Experiment [3] deals with T3, GSPT1 (Homo sapiens, UniProt P15170+Q96SW2).
T3 construct: endogenous in cells; host or cells: human PBMCs (Milecell Biotechnologies)
T3 sequence (P15170 whole entry): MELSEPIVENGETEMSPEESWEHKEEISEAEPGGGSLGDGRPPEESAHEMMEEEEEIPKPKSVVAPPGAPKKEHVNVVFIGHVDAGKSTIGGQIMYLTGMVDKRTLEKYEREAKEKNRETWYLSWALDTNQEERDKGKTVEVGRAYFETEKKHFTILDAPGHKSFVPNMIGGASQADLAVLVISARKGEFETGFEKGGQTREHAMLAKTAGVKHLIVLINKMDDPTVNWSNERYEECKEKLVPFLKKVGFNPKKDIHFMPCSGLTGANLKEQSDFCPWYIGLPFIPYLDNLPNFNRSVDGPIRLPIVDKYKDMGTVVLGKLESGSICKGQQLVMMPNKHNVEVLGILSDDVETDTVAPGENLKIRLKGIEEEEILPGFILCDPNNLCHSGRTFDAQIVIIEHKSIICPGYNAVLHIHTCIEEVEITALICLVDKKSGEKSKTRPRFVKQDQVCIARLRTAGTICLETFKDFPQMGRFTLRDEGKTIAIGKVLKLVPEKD
T3 sequence (Q96SW2 whole entry): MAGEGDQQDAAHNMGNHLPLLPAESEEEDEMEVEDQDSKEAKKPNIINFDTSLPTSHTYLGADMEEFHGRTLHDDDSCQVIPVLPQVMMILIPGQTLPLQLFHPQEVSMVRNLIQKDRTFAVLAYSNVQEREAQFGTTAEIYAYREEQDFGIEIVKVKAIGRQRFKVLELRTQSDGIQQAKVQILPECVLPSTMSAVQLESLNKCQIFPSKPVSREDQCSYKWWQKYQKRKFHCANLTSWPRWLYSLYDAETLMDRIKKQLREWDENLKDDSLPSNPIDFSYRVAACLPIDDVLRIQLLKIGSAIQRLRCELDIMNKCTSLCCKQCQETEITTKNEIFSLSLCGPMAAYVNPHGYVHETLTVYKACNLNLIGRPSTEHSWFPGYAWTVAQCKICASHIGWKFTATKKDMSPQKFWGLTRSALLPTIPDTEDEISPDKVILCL
T3 sequence (Q16531 whole entry partner): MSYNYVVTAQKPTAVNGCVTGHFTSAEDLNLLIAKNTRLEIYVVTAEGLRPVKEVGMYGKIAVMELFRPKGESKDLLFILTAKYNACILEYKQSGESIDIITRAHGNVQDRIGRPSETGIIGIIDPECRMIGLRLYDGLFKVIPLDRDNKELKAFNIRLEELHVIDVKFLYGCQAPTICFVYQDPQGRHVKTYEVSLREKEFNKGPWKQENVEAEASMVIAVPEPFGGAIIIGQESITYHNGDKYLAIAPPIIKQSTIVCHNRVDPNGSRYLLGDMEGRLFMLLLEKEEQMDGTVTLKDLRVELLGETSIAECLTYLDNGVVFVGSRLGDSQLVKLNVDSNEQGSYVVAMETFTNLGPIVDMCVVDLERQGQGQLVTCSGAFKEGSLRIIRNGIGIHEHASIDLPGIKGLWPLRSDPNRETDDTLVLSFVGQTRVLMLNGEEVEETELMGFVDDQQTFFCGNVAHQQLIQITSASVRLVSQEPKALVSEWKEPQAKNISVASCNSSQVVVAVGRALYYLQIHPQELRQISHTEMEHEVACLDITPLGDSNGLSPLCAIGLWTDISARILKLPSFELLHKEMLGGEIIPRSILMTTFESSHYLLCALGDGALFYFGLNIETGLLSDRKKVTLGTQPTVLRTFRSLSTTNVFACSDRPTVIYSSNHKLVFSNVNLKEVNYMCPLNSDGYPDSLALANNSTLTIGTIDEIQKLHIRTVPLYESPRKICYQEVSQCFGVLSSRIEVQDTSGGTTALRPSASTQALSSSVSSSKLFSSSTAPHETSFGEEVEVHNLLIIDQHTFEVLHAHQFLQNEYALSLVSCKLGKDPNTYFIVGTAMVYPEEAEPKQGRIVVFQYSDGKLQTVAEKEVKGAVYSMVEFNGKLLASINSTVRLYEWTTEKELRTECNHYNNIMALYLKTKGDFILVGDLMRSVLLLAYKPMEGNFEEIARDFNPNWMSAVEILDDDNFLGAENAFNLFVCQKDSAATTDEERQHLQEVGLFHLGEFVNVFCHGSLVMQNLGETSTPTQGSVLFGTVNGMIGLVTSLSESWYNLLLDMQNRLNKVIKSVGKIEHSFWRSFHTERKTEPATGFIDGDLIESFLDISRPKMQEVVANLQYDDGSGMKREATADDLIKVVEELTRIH
The experiment in a line: Western-blot assay, substrate protein in hPBMCs. In kind it is cell-based. The settings on record: hPBMC cells, 24 hours, tested at 50 nM and 500 nM, table does not say which. A digest of the protocol:
as §1

For experiment [4], the target named is T4, human Cereblon WT GST-tagged protein (Homo sapiens, UniProt Q96SW2).
T4 construct: purchased CISBIO 64BDCRBNPEH
T4 sequence (Q96SW2 whole entry): as the sequence (Q96SW2 whole entry) above
The experiment in a line: CRBN-binding affinity, HTRF (CEREBLON BINDING kit). The settings on record: displacement of Thalidomide-Re reagent, 3 hours at room temperature. An outline of the steps: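 Compounds displace a thalidomide-Re tracer from GST-tagged human Cereblon WT, detected with an Eu-labelled anti-GST antibody by time-resolved fluorescence. Signal at 620 nm was normalised against solvent and blank controls.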
Background: In TR-FRET formats the signal depends on donor and acceptor labels being close together.

Experiment [5] has as its target T5, IKZF1 (Homo sapiens, UniProt Q13422+Q96SW2).
T5 construct: endogenous in cells; host or cells: human PBMCs (Milecell Biotechnologies)
The experiment in a line: Western-blot assay, substrate protein in hPBMCs. In kind it is cell-based. The settings on record: hPBMC cells, 24 hours, tested at 50 nM and 500 nM, table does not say which. How it is done: (§2) The effect of the compounds of the present disclosure on the expression of target proteins in cells was detected using conventional Western blot analysis.
(§3) Human peripheral blood mononuclear cells (hPBMCs) at a density of 1×10^6 cells/mL were thawed according to the PBMC Recovery Protocol (Milecell Biotechnologies Inc, Shanghai). The cells were then treated with the compounds of the present disclosure (including the compounds listed in Tables 1 and 2, and the Examples A1-A20 and 1-116 compounds) at concentrations of 50 nM and 500 nM.
(§4) Controls included a negative control (DMSO) and a positive control (the commercial immunomodulatory drug lenalidomide), both processed following the identical experimental protocol as the compounds of the present disclosure. After 24 hours of compounds treatment, cells were harvested and lysed in RIPA protein lysate containing phosphatase inhibitors on ice for 30-60 min, followed by centrifugation. The supernatant was aspirated as the extracted total cell protein. The protein concentration of the supernatant was determined using the conventional BCA (Bicinchoninic Acid) assay. The supernatant was then mixed with 4× SDS sample loading buffer, denatured at 95° C. for 5 minutes, and then subjected to SDS-PAGE electrophoresis on a polyacrylamide gel. Proteins were then transferred to a nitrocellulose (NC) membrane, blocked at room temperature for 1-2 h, and processed for antibody incubation and detection according to the manufacturer's instructions (Cell Signaling Technology).
(§5) Half-Maximal Degradation Concentration value (the drug concentration required for degrading proteins by 50%, abbreviated as DC50) reads method: comparing the grayscale values of Western blot bands from drug-treated samples with those from blank DMSO-treated controls, and identifying the drug concentration range at which the grayscale value is half that of the DMSO-treated control bands.
(§6) DC50 values can be calculated using ImageJ software to measure grayscale values of Western blot bands from drug-treated samples. The concentration-response curve is fitted to estimate the drug concentration corresponding to half the grayscale value.
(§7) Target protein remaining (%) refers to the percentage of target protein remaining in hPBMC cells after treatment with protein degrader compounds.
(§8) Calculation method for protein remaining (%): Use ImageJ software to measure grayscale values of Western blot bands from drug (protein degrader)-treated samples. The grayscale value of drug-treated bands is divided by that of internal control protein bands, and the resulting quotient is normalized to obtain the relative percentage of remaining target protein after protein degrader treatment.
(§9) Target protein degradation rate (%)=100%−target protein remaining (%).

Experiment [6] has as its target T6, IKZF2 (Homo sapiens, UniProt Q96SW2+Q9UKS7).
T6 construct: endogenous in cells; host or cells: human PBMCs (Milecell Biotechnologies)
The experiment is described as follows: Western-blot assay, substrate protein in hPBMCs. The class given is cell-based. To be noted: hPBMC cells, 24 hours, tested at 50 nM and 500 nM, table does not say which. A digest of the protocol:
as §1

For experiment [7], the target named is T7, IKZF3 (Homo sapiens, UniProt Q96SW2+Q9UKT9).
T7 construct: endogenous in cells; host or cells: human PBMCs (Milecell Biotechnologies)
The experiment is described as follows: Western-blot assay, substrate protein in hPBMCs. The settings on record: hPBMC cells, 24 hours, tested at 50 nM and 500 nM, table does not say which. In kind it is cell-based. How it is done: as §2, §3, §4, §5, §6, §7, §8, §9

T2 sequence (P48729 whole entry): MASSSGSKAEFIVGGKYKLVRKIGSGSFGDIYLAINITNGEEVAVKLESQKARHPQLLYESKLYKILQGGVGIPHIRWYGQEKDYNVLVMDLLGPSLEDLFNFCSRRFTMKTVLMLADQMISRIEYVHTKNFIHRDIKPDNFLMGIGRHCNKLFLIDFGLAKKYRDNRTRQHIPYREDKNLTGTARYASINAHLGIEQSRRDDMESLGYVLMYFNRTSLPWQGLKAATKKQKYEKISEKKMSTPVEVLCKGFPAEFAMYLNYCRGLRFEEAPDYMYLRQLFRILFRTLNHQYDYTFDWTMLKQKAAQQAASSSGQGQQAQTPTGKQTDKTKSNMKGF
T2 sequence (Q96SW2 whole entry): as the sequence (Q96SW2 whole entry) above
T2 sequence (Q16531 whole entry partner): as the sequence (Q16531 whole entry partner) above
T1 sequence (P30291 whole entry): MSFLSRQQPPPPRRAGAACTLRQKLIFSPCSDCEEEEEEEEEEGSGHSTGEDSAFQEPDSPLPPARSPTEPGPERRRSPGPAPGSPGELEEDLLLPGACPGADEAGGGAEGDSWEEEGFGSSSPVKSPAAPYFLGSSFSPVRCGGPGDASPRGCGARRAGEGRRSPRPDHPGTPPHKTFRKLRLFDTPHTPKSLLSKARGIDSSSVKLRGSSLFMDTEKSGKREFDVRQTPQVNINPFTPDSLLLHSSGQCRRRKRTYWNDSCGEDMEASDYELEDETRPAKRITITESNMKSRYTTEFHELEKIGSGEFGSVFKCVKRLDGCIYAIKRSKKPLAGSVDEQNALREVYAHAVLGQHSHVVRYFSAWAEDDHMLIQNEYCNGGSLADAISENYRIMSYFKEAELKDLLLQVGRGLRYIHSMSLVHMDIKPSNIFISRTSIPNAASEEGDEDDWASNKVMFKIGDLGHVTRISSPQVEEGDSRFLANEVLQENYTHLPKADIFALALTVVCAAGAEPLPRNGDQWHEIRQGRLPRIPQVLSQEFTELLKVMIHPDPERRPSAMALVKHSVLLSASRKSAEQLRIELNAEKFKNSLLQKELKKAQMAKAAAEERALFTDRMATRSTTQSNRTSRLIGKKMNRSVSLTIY
T1 sequence (Q96SW2 whole entry): as the sequence (Q96SW2 whole entry) above
T1 sequence (Q16531 whole entry partner): as the sequence (Q16531 whole entry partner) above
T6 sequence (Q9UKS7 whole entry): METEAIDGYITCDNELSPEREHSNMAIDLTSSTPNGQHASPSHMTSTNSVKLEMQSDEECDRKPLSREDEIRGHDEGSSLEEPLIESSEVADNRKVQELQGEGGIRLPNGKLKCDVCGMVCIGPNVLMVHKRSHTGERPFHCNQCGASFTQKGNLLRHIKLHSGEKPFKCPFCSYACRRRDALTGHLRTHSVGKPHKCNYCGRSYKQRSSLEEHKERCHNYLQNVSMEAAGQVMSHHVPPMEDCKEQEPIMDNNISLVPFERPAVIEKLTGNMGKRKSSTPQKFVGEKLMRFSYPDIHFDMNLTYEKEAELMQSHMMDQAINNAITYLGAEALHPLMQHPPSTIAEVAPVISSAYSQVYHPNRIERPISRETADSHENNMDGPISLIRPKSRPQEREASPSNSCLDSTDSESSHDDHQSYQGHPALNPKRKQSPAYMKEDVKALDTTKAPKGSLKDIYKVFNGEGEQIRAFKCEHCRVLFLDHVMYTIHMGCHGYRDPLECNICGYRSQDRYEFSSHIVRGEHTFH
T6 sequence (Q96SW2 whole entry): as the sequence (Q96SW2 whole entry) above
T6 sequence (Q16531 whole entry partner): as the sequence (Q16531 whole entry partner) above
T5 sequence (Q13422 whole entry): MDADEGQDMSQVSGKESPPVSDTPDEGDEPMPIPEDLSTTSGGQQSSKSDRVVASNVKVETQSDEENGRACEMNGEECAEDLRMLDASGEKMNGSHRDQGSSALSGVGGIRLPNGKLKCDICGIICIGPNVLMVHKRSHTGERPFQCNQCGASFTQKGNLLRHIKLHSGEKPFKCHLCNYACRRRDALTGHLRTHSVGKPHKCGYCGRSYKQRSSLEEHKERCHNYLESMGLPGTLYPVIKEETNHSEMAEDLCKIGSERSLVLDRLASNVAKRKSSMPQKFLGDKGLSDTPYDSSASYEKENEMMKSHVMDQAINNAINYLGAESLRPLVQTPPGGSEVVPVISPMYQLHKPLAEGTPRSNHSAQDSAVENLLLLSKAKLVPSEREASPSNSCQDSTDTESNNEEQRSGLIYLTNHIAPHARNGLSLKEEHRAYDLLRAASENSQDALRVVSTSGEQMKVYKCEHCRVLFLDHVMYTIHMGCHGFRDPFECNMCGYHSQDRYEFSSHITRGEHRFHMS
T5 sequence (Q96SW2 whole entry): as the sequence (Q96SW2 whole entry) above
T5 sequence (Q16531 whole entry partner): as the sequence (Q16531 whole entry partner) above

As usually defined, the IC50 is the point on the concentration scale where inhibition reaches its midpoint. A lower IC50 goes with inhibition by little substance. As to `CC1(C)CCC(CN2CC(Sc3ccc4c(c3)CN(C3CCC(=O)NC3=O)C4=O)C2)=C(c2ccc(Cl)cc2)C1` (centres unmarked) [GT-03464, 3-(5-((1-((4′-chloro-5,5-dimethyl-3,4,5,6-tetrahydro-[1,1′-biphenyl]-2-yl)methyl)azetidin-3-yl)thio)-1-oxoisoindolin-2-yl)piperidine-2,6-dione], the “substrate protein remaining %” value in experiment [1], in experiment [2], in experiment [3] and in experiment [5] was “A (0%≤ substrate protein remaining % ≤80%)” in each case. The compound further displayed an IC50 in experiment [4] below 500 nM.
In the case of `O=C1CCC(N2Cc3cc(SC4CNC4)ccc3C2=O)C(=O)N1` (centres unmarked) [GT-03613, 3-(5-(azetidin-3-ylthio)-1-oxoisoindolin-2-yl)piperidine-2,6-dione], the “substrate protein remaining %” value in experiment [1], in experiment [2], in experiment [6], in experiment [3] and in experiment [5] was “A (0%≤ substrate protein remaining % ≤80%)” each time. In experiment [4], this compound yielded an IC50 below 500 nM.
As to `O=C1CCC(N2Cc3cc(SC4CCNCC4)ccc3C2=O)C(=O)N1` (centres unmarked) [GT-03616, 3-(1-oxo-5-(piperidin-4-ylthio)isoindolin-2-yl)piperidine-2,6-dione], the “substrate protein remaining %” value in experiment [2], in experiment [6], in experiment [3] and in experiment [5] was “A (0%≤ substrate protein remaining % ≤80%)” each time. This compound also showed an IC50 in experiment [4] of 1000 to 1900 nM.
Regarding `CC1(C)CCC(C(=O)N2CC(Sc3ccc4c(c3)CN(C3CCC(=O)NC3=O)C4=O)C2)=C(c2ccc(Cl)cc2)C1` (centres unmarked) [GT-06137, 3-(5-((1-(4′-chloro-5,5-dimethyl-3,4,5,6-tetrahydro-[1,1′-biphenyl]-2-carbonyl)azetidin-3-yl)thio)-1-oxoisoindolin-2-yl)piperidine-2,6-dione], the “substrate protein remaining %” value in experiment [1], in experiment [3] and in experiment [5] was “A (0%≤ substrate protein remaining % ≤80%)” each time. In experiment [4], this compound returned an IC50 of 500 to 1000 nM.
Take `O=C1CCC(N2Cc3cc(SC4CCN(C(c5ccccc5)c5ccccc5)CC4)ccc3C2=O)C(=O)N1` (centres unmarked) [GT-06184, 3-(5-((1-benzhydrylpiperidin-4-yl)thio)-1-oxoisoindolin-2-yl)piperidine-2,6-dione]: the “substrate protein remaining %” value in experiment [3] and in experiment [7] was “A (0%≤ substrate protein remaining % ≤80%)” each time. In experiment [4], this compound had an IC50 of 500 to 1000 nM.
With `O=C1CCC(N2Cc3cc(OC4CN(C(c5cccc(F)c5)c5cccc(F)c5)C4)ccc3C2=O)C(=O)N1` (centres unmarked) [GT-06352, 3-(5-((1-(bis(3-fluorophenyl)methyl)azetidin-3-yl)oxy)-1-oxoisoindolin-2-yl)piperidine-2,6-dione], the “substrate protein remaining %” value in experiment [2], in experiment [3] and in experiment [5] was “A (0%≤ substrate protein remaining % ≤80%)” in each case. For the same compound, in experiment [4], the half-maximal inhibitory concentration (IC50) was 500 to 1000 nM.
As for `O=C1CCC(N2Cc3cc(SC4CN(C(c5ccc(F)cc5)c5ccc(F)cc5)C4)ccc3C2=O)C(=O)N1` (centres unmarked) [GT-06503, 3-(5-((1-(bis(4-fluorophenyl)methyl)azetidin-3-yl)thio)-1-oxoisoindolin-2-yl)piperidine-2,6-dione], the “substrate protein remaining %” value in experiment [1], in experiment [2], in experiment [3] and in experiment [5] was “A (0%≤ substrate protein remaining % ≤80%)” each time. In experiment [4], this compound displayed an IC50 of 500 to 1000 nM.
Regarding `O=C1CCC(N2Cc3cc(OC4CN(Cc5ccc(-c6ccco6)s5)C4)ccc3C2=O)C(=O)N1` (centres unmarked) [GT-06562, 3-(5-((1-((5-(furan-2-yl)thiophen-2-yl)methyl)azetidin-3-yl)oxy)-1-oxoisoindolin-2-yl)piperidine-2,6-dione], the “substrate protein remaining %” value in experiment [1], in experiment [3] and in experiment [5] was “A (0%≤ substrate protein remaining % ≤80%)” each time. In addition, in experiment [4], the IC50 is below 500 nM.
Regarding `O=C1CCC(N2Cc3cc(OC4CN(C(c5ccccc5)c5cccnc5)C4)ccc3C2=O)C(=O)N1` (centres unmarked) [GT-06760, 3-(1-oxo-5-((1-(phenyl(pyridin-3-yl)methyl)azetidin-3-yl)oxy)isoindolin-2-yl)piperidine-2,6-dione], the “substrate protein remaining %” value in experiment [1], in experiment [6] and in experiment [5] was “A (0%≤ substrate protein remaining % ≤80%)” in each case. The compound further registered an IC50 in experiment [4] below 500 nM.
`O=C1CCC(N2Cc3cc(SC4CN(Cc5ccc(-c6ccncc6)nc5)C4)ccc3C2=O)C(=O)N1` (centres unmarked) [GT-06808, 3-(5-((1-([2,4′-bipyridin]-5-ylmethyl)azetidin-3-yl)thio)-1-oxoisoindolin-2-yl)piperidine-2,6-dione]: the “substrate protein remaining %” value in experiment [1], in experiment [2], in experiment [6] and in experiment [5] was “A (0%≤ substrate protein remaining % ≤80%)” each time. In experiment [4], this compound had an IC50 of 500 to 1000 nM.
In the case of `CC1(C)CCC(CN2CC(Sc3cccc4c3C(=O)N(C3CCC(=O)NC3=O)C4)C2)=C(c2ccc(Cl)cc2)C1` (centres unmarked) [GT-06812, 3-(7-((1-((4′-chloro-5,5-dimethyl-3,4,5,6-tetrahydro-[1,1′-biphenyl]-2-yl)methyl)azetidin-3-yl)thio)-1-oxoisoindolin-2-yl)piperidine-2,6-dione], the “substrate protein remaining %” value in experiment [1], in experiment [3] and in experiment [5] was “A (0%≤ substrate protein remaining % ≤80%)” throughout. This compound returned an IC50 in experiment [4] of 1000 to 1900 nM.
For the compound `O=C1CCC(N2Cc3cc(OC4CC5CN(C(=O)c6ccccc6-c6ccc(Cl)cc6)CC5C4)ccc3C2=O)C(=O)N1` (centres unmarked) [GT-06954, 3-(5-((2-(4′-chloro-[1,1′-biphenyl]-2-carbonyl)octahydro-cyclopenta[c]pyrrol-5-yl)oxy)-1-oxoisoindolin-2-yl)piperidine-2,6-dione], the “substrate protein remaining %” value in experiment [1], in experiment [6], in experiment [3] and in experiment [5] was “A (0%≤ substrate protein remaining % ≤80%)” in each case. The IC50 in experiment [4] is below 500 nM.
Take `O=C1CCC(N2Cc3cccc(SC4CNC4)c3C2=O)C(=O)N1` (centres unmarked) [GT-06994, 3-(7-(azetidin-3-ylthio)-1-oxoisoindolin-2-yl)piperidine-2,6-dione]: the “substrate protein remaining %” value in experiment [6] and in experiment [5] was “A (0%≤ substrate protein remaining % ≤80%)” each time.
